Assay [1] addresses T1, Retinoic acid receptor alpha (Homo sapiens, UniProt P10276).
T1 sequence (P10276 whole entry): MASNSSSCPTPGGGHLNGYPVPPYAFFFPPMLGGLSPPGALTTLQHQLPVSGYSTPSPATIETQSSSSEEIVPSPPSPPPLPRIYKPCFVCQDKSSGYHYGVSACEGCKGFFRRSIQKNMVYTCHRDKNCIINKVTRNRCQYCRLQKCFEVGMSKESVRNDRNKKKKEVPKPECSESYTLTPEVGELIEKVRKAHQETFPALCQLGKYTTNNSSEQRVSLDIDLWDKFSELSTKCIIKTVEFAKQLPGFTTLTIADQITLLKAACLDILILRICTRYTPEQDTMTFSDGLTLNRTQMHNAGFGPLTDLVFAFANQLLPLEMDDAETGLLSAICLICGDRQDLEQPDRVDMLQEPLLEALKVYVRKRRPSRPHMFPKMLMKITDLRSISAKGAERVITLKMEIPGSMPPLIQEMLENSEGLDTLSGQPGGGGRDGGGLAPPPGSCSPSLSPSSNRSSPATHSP
Nature of the assay: Binding affinity fo retinoic acid receptor RAR alpha.

The target in assay [2] is T2, Retinoic acid receptor beta (Homo sapiens, UniProt P10826).
T2 sequence (P10826 whole entry): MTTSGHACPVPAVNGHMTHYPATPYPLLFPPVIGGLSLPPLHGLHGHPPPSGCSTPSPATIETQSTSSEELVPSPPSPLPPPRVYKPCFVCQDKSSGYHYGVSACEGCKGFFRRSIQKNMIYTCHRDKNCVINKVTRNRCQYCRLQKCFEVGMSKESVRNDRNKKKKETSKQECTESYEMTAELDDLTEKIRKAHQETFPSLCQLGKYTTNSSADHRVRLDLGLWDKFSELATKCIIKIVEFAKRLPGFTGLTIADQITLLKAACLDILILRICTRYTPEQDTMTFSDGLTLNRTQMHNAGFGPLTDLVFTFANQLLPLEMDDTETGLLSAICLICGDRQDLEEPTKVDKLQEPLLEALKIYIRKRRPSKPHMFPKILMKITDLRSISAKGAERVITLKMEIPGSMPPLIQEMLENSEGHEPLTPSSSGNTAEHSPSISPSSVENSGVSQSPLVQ
Nature of the assay: Binding affinity for retinoic acid receptor RAR beta.

Assay [3] deals with T1, Retinoic acid receptor alpha. Nature of the assay: Effective concentration for retinoic acid receptor RAR alpha transcriptional activation. The class given is functional.
In assay [4] the target is T3, Retinoic acid receptor gamma (Homo sapiens) (UniProt P13631).
T3 sequence (whole entry): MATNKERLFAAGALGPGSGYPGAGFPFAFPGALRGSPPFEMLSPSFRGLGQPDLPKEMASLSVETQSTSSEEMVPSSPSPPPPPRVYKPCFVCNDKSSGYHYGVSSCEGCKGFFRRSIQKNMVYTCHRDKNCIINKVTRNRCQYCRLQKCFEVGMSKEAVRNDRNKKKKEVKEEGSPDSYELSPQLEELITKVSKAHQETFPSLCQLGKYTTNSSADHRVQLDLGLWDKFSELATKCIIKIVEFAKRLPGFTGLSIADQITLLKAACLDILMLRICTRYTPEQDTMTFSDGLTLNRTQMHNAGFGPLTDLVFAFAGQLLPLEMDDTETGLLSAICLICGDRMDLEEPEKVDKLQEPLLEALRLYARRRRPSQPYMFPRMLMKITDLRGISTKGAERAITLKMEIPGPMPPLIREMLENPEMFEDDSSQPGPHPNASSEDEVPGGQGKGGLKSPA
Conditions: 1 mM.

Assay [5] concerns the target T4, Retinoic acid receptor beta (Homo sapiens) (UniProt P10826).
T4 sequence (whole entry): T2 sequence (P10826 whole entry)
Nature of the assay: Percent transcriptional activation of RAR beta compared to […]; NA indicates […]. The class given is functional.

Assay [6] has as its target T5, Retinoic acid receptor gamma (Homo sapiens, UniProt P13631).
T5 sequence (P13631 whole entry): T3 sequence (whole entry)
As to the kind of experiment: Binding affinity for retinoic acid receptor RAR gamma.

The target of assay [7] is T5, Retinoic acid receptor gamma. As to the kind of experiment: Effective concentration for retinoic acid receptor RAR gamma transcriptional activation. The format is functional.
In assay [8] the target is T2, Retinoic acid receptor beta. Nature of the assay: Effective concentration for retinoic acid receptor RAR beta transcriptional activation. The class given is functional.
Assay [9] addresses T4, Retinoic acid receptor beta (Homo sapiens). As to the kind of experiment: Percent transcriptional activation of RAR beta compared to […]. The format is functional.
For assay [10], the target named is T3, Retinoic acid receptor gamma (Homo sapiens). As to the kind of experiment: Percent transcriptional activation of RAR gamma compared to 1 µM ATRA.
Assay [11] concerns the target T6, Retinoic acid receptor alpha (Mus musculus) (UniProt P11416).
T6 sequence (whole entry): T1 sequence (P10276 whole entry) with T43S, E150D, V169A, R347K, P427S, G431T, N453H, H460Q
Nature of the assay: Topical irritation induced by RAR alpha-selective retinoid Am-580 in mice. The class given is functional.

The test system of assay [12] is SK-BR-3. Nature of the assay: Inhibition of ER-negative human breast cancer cell SK-BR-3 proliferation. The class given is functional, cell-based.
Assay [13] has as its system SK-BR-3. As to the kind of experiment: Percent inhibition of BrdU incorporation into SK-BR-3 cells. The class given is functional, Homo sapiens.
Assay [14] addresses T7, Retinoic acid receptor alpha (Homo sapiens) (UniProt P10276).
T7 sequence (whole entry): T1 sequence (P10276 whole entry)
As to the kind of experiment: Percent transcriptional activation of RAR alpha compared to […]. The class given is functional.

Assay [15] has as its system T47D. Nature of the assay: Inhibition of ER positive human breast cancer cell T-47D proliferation. The class given is functional, cell-based.
Assay [16] deals with T47D. As to the kind of experiment: Percent inhibition of BrdU incorporation into T-47D cells. The class given is functional, Homo sapiens.

Each structure is given as a SMILES string. Substitutions are numbered along the chain they refer to. pEC50, pIC50, pKd: −log10 of the molar value. The source made the active and inactive calls. The calls are words filed in the database; no cut-off is given here.

For `CC1(C)CCC(C)(C)c2c1cc(C(=O)Nc1cc(F)c(C(=O)O)c(F)c1)c(O)c2Br`, the results for the pKd in assay [1], in assay [2] and in assay [6] were 8.40, 5.19 and under 4.00, respectively. For the same compound, the pEC50 in assay [3] is 6.54. Besides, the Efficacy result in [4] and in [5] was “inactive” each time.

For `CC1(C)CCC(C)(C)c2cc(C(=O)Nc3cc(F)c(C(=O)O)c(F)c3)c(O)cc21`, the values for the negative-log Kd (pKd) in assay [1], in assay [2] and in [6] were 8.52, under 4.00 and 5.25, respectively. Besides, the pEC50 in assay [7] was under 6.00; in assay [3], 6.95; in assay [8], under 6.00. The Efficacy in assay [9] and in [10] was 10% in each case.

On to `CC1(C)CCC(C)(C)c2c1cc(C(=O)Nc1cc(F)c(C(=O)O)c(F)c1)c(O)c2Cl` [NRX195183], for which the pKd was 8.52 in assay [1], under 4.00 in assay [2] and under 4.00 in [6]. The negative-log EC50 (pEC50) in assay [3] is 6.70. The Topical irritation score(0-21) in [11] worked out at 0. Moreover, the Efficacy result in [4] and in [5] was “inactive” each time. Besides, the pIC50 was 7.96 in the assay on SK-BR-3 [12] and 8.85 with T47D [15]. Also, the Efficacy in the assay with SK-BR-3 [13] is 93%; in assay [14], 80%; in the assay on T47D [16], 57%.

`CC1(C)CCC(C)(C)c2cc(C(=O)Nc3ccc(C(=O)O)cc3)ccc21`: the Topical irritation score(0-21) in [11] was found to be 16. Moreover, the Efficacy in [9] stood at 105%; in assay [10], 80%.

Regarding `CC1(C)CCC(C)(C)c2cc(C(=O)Nc3cc(F)c(C(=O)O)c(F)c3)ccc21`, the values for the pKd in assay [1], in assay [2] and in [6] were 8.15, 5.83 and 5.25, respectively. Also, the pEC50 is 7.03 in [3] and under 6.00 in assay [8]. The compound further registered an Efficacy in assay [9] of 25%. Besides, the Efficacy result in assay [4] is “inactive”.

With `CC1(C)CCC(C)(C)c2cc(C(=O)Nc3ccc(C(=O)O)c(F)c3)ccc21`, the pKd is 8.70 in [1], 6.42 in assay [2] and 6.00 in assay [6]. In addition, the pEC50 in [7] was 6.46; in [3] it was 8.10; in assay [8], 7.35. In addition, the Efficacy in [9] worked out at 78%; in [10], 85%.

As for `CC1=C(/C=C/C(C)=C/C=C/C(C)=C/C(=O)O)C(C)(C)CCC1` [TRETINOIN], the figures for the pIC50 with SK-BR-3 [12] and in the assay on T47D [15] were 8.77 and 6.70, respectively. Further, the Efficacy in the assay with SK-BR-3 [13] stood at 99%; in the assay with T47D [16] it was 74%.

Values taken from ChEMBL document CHEMBL1134943, “Synthesis and biological activity of retinoic acid receptor-alpha specific amides” (Bioorg Med Chem Lett, 2002).
